According to patent US8273378B2, “Dialysis solutions containing pyrophosphates” (Baxter International, Inc., priority 2007, dated 2012):
Read-outs that look alike come from different tables or passages of the source.

Settings: for stability of pyrophosphate on storage: 1 week at 40° C.; for stability of pyrophosphate on storage / loss of pyrophosphate during sterilization: all buffers; for change in the pH of the solutions: after sterilization and after storage for a week at 40° C.; for loss of pyrophosphate during sterilization: pH 6 and lower; for Recoveries: unsterilized
Protocol: Introduction: This study was designed to evaluate the stability of pyrophosphate salts with different buffers over a pH range from 4 to 10 during steam sterilization and after storage at 40° C. Two pyrophosphate salts and four buffers were obtained for the study. TRIS was added to all solutions as a pH stabilizer. Two of the solutions were also prepared without TRIS for comparison. The pH of the solutions was adjusted from pH 4-10 with 1N HCl or 1N NaOH. The solutions were sterilized at 121° C. for 40 minutes. Pyrophosphate concentration was determined before and after sterilization and after storage. The pH was also determined after sterilization and after storage.
The salts tested were: • 1. Disodium Pyrophosphate (Na2H2P2O7) • 2. Tetrapotassium Pyrophosphate (K4P2O7)
The study was performed using the sodium and potassium salts of pyrophosphate with the buffers shown below. Solutions were not prepared with bicarbonate below pH 7 because bicarbonate will decompose at a lower pH. • 1. Sodium Lactate • 2. Sodium Bicarbonate • 3. Sodium Citrate • 4. Sodium Pyruvate
The concentrations of the solution components are shown below in Table 2.

Row | Structure (SMILES) | stability of pyrophosphate on storage (pH 7-10) | stability of pyrophosphate on storage (pH 7-10, except lactate without TRIS at pH 7) | change in the pH of the solutions | loss of pyrophosphate during sterilization | change in pH after sterilization (all solutions) | pH change after storage (storage for up to two months at 40° C., all solutions) | Recoveries (all buffers at pH 6 and higher) [%] | Recoveries (buffers other than citrate, pH 4 and 5) | stability during sterilization (with bicarbonate at pH 9-10) | stability during sterilization (pH 9) | pH change after storage (storage for 1 week)
1 | O=P([O-])([O-])OP(=O)(O)O.[Na+].[Na+] [Disodium Pyrophosphate] | remained unchanged | stable | no change in the pH | substantial loss of pyrophosphate | no change in pH | less than 0.1 pH unit | ≥ 95 | 90-102% | most stable |  | 
2 | O=P([O-])([O-])OP(=O)([O-])[O-].[K+].[K+].[K+].[K+] [Tetrapotassium Pyrophosphate] |  |  | no change in the pH | substantial loss of pyrophosphate | no change in pH |  |  |  |  | most stable | less than 0.1 pH unit
